Laboratory results: ChEMBL document CHEMBL4020807, “Synthesis of resveratrol derivatives as new analgesic drugs through desensitization of the TRPA1 receptor” (Bioorg Med Chem Lett, 2017)
Active and inactive are the calls of the source. The rule behind the calls is not given here.

Experiments:
[1] = target: T1, Transient receptor potential cation channel subfamily A member 1 (Homo sapiens, UniProt O75762); assay: Agonist activity at human TRPA1 expressed in HEK293 cells assessed as induction of calcium influx at 30 uM after 6 mins by Fluo-4 dye-based assay relative to AITC; format: cell-based; settings: hek293, 0.1 h
[2] = target: T1, Transient receptor potential cation channel subfamily A member 1; assay: Inhibition of human TRPA1 expressed in HEK293 cells assessed as decrease in AITC-induced calcium influx at 30 uM preincubated for 6 mins followed by AITC addition measured for 1 min by Fluo-4 dye-based assay relative to resveratrol; format: cell-based
[3] = target: T1, Transient receptor potential cation channel subfamily A member 1; assay: Inhibition of human TRPA1 expressed in HEK293 cells assessed as decrease in AITC-induced current response by whole cell patch clamp method; format: cell-based
[4] = target: T1, Transient receptor potential cation channel subfamily A member 1; assay: Inhibition of human TRPA1 expressed in HEK293 cells assessed as decrease in AITC-induced calcium influx at 30 uM preincubated for 6 mins followed by AITC addition measured for 1 min by Fluo-4 dye-based assay relative to control; format: cell-based
[5] = target: T1, Transient receptor potential cation channel subfamily A member 1; assay: Inhibition of human TRPA1 expressed in HEK293 cells assessed as decrease in AITC-induced calcium influx at 10 uM preincubated for 6 mins followed by AITC addition measured for 1 min by Fluo-4 dye-based assay relative to control; format: cell-based
[6] = target: T1, Transient receptor potential cation channel subfamily A member 1; assay: Agonist activity at human TRPA1 expressed in HEK293 cells assessed as induction of calcium influx at 30 uM after 6 mins by Fluo-4 dye-based assay; format: cell-based
[7] = target: T1, Transient receptor potential cation channel subfamily A member 1; assay: Inhibition of human TRPA1 expressed in HEK293 cells assessed as decrease in AITC-induced calcium influx preincubated for 6 mins followed by AITC addition measured for 1 min by Fluo-4 dye-based assay; format: cell-based
[8] = target: T1, Transient receptor potential cation channel subfamily A member 1; assay: Inhibition of human TRPA1 expressed in HEK293 cells assessed as decrease in AITC-induced calcium influx at 3 uM preincubated for 6 mins followed by AITC addition measured for 1 min by Fluo-4 dye-based assay relative to control; format: cell-based
[9] = target: T2, Transient receptor potential cation channel subfamily A member 1 (Rattus norvegicus, UniProt Q6RI86); assay: Activation of TRPA1 in Sprague-Dawley rat DRG neuron assessed as induction of current response at -60 mV holding potential at 300 uM incubated for 30 secs by whole-cell patch-clamp assay; settings: 0.5 min
[10] = target: T2, Transient receptor potential cation channel subfamily A member 1; assay: Activation of TRPA1 in Sprague-Dawley rat DRG neuron assessed as induction of current response at -60 mV holding potential at 1 uM incubated for 30 secs by whole-cell patch-clamp assay; settings: 0.5 min
[11] = target: T1, Transient receptor potential cation channel subfamily A member 1; assay: Inhibition of TRPA1 (unknown origin)
[12] = target: T1, Transient receptor potential cation channel subfamily A member 1; assay: Agonist activity at human TRPA1 expressed in HEK293 cells assessed as induction of inward current response at 10 uM in presence of TRPA1 antagonist HC-030031 by whole-cell patch-clamp assay; format: cell-based; settings: hek293, 10 µM
[13] = target: T1, Transient receptor potential cation channel subfamily A member 1; assay: Desensitization of human TRPA1 expressed in HEK293 cells assessed as decrease in AITC-induced inward current response at -60 mV holding potential preincubated for 1 min followed by AITC induction for 1 min by whole-cell patch-clamp assay; format: cell-based
[14] = target: T2, Transient receptor potential cation channel subfamily A member 1; assay: Activation of TRPA1 in Sprague-Dawley rat DRG neuron assessed as induction of current response at -60 mV holding potential at 30 uM incubated for 30 secs by whole-cell patch-clamp assay; settings: 0.5 min
[15] = target: T1, Transient receptor potential cation channel subfamily A member 1; assay: Agonist activity at human TRPA1 expressed in HEK293 cells assessed as induction of inward current response by whole-cell patch-clamp assay; format: cell-based
Rattus norvegicus [16] = assay: Induction of nocifensive behavior in Sprague-Dawley rat at 2 mM administered intraplantarly for 5 mins; settings: in vivo, other, 2000 µM
Rattus norvegicus [17] = assay: Antinociceptive activity in Sprague-Dawley rat assessed as decrease in paw-licking time at 2 mM administered intraplantarly for 5 mins followed by AITC addition measured for 5 mins; format: functional
[18] = target: T1, Transient receptor potential cation channel subfamily A member 1; assay: Activation of human TRPA1 expressed in HEK293 cells assessed as induction of inward current response at -60 mV holding potential at 5 uM incubated for 1 min by whole-cell patch-clamp assay; format: cell-based; settings: hek293, 1 min
HEK293 = assay: Induction of current response in HEK293 cells at 10 uM by whole-cell patch-clamp assay; format: cell-based; settings: human, hek293, 10 µM

T1 sequence (O75762 whole entry): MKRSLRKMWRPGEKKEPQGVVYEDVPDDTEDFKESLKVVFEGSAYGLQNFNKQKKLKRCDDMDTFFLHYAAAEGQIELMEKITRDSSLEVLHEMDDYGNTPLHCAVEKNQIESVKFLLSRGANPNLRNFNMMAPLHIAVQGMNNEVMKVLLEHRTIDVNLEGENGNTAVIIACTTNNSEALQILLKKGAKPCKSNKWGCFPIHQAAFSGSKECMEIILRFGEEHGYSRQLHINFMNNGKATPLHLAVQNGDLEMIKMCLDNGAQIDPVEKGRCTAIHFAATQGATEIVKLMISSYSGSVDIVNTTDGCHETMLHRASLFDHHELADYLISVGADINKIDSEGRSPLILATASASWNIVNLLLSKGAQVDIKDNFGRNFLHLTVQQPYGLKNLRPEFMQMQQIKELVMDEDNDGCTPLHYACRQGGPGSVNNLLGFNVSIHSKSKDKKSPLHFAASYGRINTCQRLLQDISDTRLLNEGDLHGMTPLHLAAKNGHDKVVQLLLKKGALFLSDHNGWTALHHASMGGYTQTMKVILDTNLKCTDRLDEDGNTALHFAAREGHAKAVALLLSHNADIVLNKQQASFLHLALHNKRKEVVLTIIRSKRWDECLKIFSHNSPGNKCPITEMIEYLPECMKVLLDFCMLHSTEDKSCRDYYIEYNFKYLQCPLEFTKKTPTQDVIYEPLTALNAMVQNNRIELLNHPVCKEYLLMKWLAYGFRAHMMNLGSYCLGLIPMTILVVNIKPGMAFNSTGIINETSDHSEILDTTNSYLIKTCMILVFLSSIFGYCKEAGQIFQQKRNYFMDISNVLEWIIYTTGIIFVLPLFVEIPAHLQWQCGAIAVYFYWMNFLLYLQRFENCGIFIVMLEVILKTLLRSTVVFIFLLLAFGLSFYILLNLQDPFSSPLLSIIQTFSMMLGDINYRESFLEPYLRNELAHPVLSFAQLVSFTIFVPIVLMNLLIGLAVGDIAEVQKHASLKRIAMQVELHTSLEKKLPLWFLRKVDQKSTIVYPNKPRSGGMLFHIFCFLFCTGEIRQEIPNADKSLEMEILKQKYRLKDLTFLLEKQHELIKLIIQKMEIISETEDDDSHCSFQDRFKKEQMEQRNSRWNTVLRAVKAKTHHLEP
T2 sequence (Q6RI86 whole entry): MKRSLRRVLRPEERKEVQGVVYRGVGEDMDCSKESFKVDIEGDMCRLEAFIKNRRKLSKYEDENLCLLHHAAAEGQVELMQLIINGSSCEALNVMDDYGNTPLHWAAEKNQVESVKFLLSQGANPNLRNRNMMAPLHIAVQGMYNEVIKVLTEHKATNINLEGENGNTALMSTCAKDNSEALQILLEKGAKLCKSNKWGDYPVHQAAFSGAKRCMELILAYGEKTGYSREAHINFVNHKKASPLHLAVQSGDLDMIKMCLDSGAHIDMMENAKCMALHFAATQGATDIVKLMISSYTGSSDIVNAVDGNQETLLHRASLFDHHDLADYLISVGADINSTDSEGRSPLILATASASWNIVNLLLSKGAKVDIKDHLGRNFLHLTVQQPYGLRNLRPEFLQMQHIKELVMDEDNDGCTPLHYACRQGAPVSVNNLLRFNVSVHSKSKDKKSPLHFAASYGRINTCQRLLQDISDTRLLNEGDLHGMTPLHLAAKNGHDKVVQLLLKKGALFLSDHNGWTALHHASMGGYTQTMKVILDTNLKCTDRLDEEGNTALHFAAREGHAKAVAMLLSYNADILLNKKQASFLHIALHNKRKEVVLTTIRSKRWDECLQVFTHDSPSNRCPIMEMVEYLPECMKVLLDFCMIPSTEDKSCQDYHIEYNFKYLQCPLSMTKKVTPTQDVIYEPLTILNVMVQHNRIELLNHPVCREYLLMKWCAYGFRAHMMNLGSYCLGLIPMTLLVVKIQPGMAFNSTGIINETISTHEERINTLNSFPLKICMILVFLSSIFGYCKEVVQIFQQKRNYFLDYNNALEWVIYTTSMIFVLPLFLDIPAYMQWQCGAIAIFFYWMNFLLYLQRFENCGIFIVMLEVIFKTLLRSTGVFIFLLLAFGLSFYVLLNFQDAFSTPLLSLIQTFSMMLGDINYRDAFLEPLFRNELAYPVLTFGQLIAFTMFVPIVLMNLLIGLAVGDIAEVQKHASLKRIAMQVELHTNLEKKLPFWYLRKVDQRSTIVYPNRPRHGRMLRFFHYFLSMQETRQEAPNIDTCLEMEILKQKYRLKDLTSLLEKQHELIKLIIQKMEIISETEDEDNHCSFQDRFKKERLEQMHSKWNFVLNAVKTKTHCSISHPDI

| SMILES | fold change (FC) [1] | fold change (FC) [2] | further results |
| --- | --- | --- | --- |
| CC(=O)Oc1ccc(/C=C/c2cc(OC(C)=O)cc(OC(C)=O)c2)cc1 [TRIACETYLRESVERATROL] | 0.5 | 0.5 | – |
| Oc1cc(O)cc(/C=C/c2ccccc2)c1 [PINOSYLVIN] | 0.4 | -0.1 | – |
| CC(C)(C)/C=C/c1cc(O)cc(O)c1 | 0.3 | 0.8 | – |
| Oc1cc(O)cc(/C=C/c2ccc3c(c2)OCO3)c1 | 0.3 | 0.6 | – |
| Oc1ccc(/C=C/c2cc(O)cc(O)c2)cc1 [RESVERATROL] | 0.4 | – | IC50 [3]: 0.75 µM; inhibition [4]: 37.5%; inhibition [5]: 2.5%; EC50 [6]: > 30 µM; IC50 [7]: > 30 µM; inhibition [8]: -3.8% |
| Clc1ccc(/C=C/c2ccccc2)cc1 | 0.3 | -0.2 | – |
| Oc1cc(O)cc(/C=C/c2cc(Br)c(O)c(Br)c2)c1 | 0.3 | 0.8 | – |
| Oc1cc(O)cc(/C=C/c2cc(O)c(O)c(O)c2)c1 | 0.3 | 0.4 | – |
| Oc1ccc(CCc2cc(O)cc(O)c2)cc1 [DIHYDRORESVERATROL] | 0.4 | 1.2 | inhibition [5]: 1.2%; EC50 [6]: > 30 µM; IC50 [7]: > 30 µM |
| Clc1cc(Cl)cc(/C=C/c2ccccc2)c1 | 0.3 | 0.7 | inhibition [4]: 8.4%; inhibition [5]: 6.2%; EC50 [6]: > 30 µM; IC50 [7]: > 30 µM |
| COCOc1ccc(/C=C/c2cc(OCOC)cc(OCOC)c2)cc1 | 0.5 | 0.4 | – |
| Oc1cc(O)cc(/C=C/c2ccc(O)c(O)c2)c1 [PICEATANNOL] | 0.3 | 0 | – |
| C=CCN=C=S [ALLYL ISOTHIOCYANATE] | – | – | Activity [9]: Active |
| Oc1ccc(-c2cc(O)cc(O)c2)cc1 | 0.5 | 0.8 | – |
| COc1cc(CNC(=O)CCCC/C=C/C(C)C)ccc1O [CAPSAICIN] | – | – | Activity [10]: Active |
| Oc1ccc(/C=C/c2ccc(O)c(O)c2)cc1 | 0.4 | -0.3 | – |
| CCCCCCOc1ccc(/C=C/c2cc(O)cc(O)c2)cc1 | 0.5 | 0.1 | – |
| COc1ccc(NC(=O)c2cc(O)cc(O)c2)cc1 | 0.3 | -0.4 | inhibition [4]: 11.8%; inhibition [5]: -8.2%; EC50 [6]: > 30 µM; IC50 [7]: > 30 µM; inhibition [8]: -5.9% |
| Oc1cc(O)cc(/C=C/c2ccc(OCc3ccccc3)cc2)c1 | 0.3 | 0.7 | – |
| Clc1ccc(/C=C/c2cc(Cl)cc(Cl)c2)cc1 | 0.3 | 0.8 | inhibition [4]: 20.6%; inhibition [5]: 7.2%; EC50 [6]: > 30 µM; IC50 [7]: > 30 µM; inhibition [8]: 3% |

| SMILES | fold change (FC) [1] | fold change (FC) [2] | further results |
| --- | --- | --- | --- |
| COc1ccc(/C=C/c2cc(O)cc(O)c2)cc1OC [RHAPONTIGENIN] | – | 0.4 | – |
| CCCOc1ccc(/C=C/c2cc(O)cc(O)c2)cc1 | 0.3 | 0.1 | – |
| COc1cc(O)cc(/C=C/c2ccccc2)c1 [PINOSYLVIN METHYL ETHER] | 0.7 | 0.6 | – |
| Oc1cccc(/C=C/c2cc(O)cc(O)c2)c1 | 0.4 | 0.8 | inhibition [4]: 1.4%; EC50 [6]: > 30 µM; IC50 [7]: > 30 µM |
| COc1cc(/C=C/c2ccccc2)cc(OC)c1 [3,5-O-DIMETHYLPINOSYLVIN] | 0.6 | 0.5 | – |
| Oc1ccccc1/C=C/c1ccccc1 | 0.6 | 1.1 | inhibition [4]: -9.5%; inhibition [5]: -5%; IC50 [11]: 1.7 to 2.2 µM; EC50 [6]: > 10 µM; IC50 [7]: > 30 µM; inhibition [8]: -1.9% |
| COc1ccccc1/C=C/c1ccccc1 | 0.4 | 0.3 | IC50 [11]: 1.7 to 2.2 µM |
| Oc1ccc(/C=C/c2cc(Br)c(O)c(Br)c2)cc1 | 0.5 | 1.4 | Activity [12]: Dose-dependent effect; Activity [13]: Dose-dependent effect; Activity [14]: Active; Activity [15]: Not Active; inhibition [4]: 66.7%; Activity (Rattus norvegicus [16]): Non-Toxic; Activity (Rattus norvegicus [17]): Active; inhibition [5]: 37.3%; EC50 [6]: > 10 µM; IC50 [7]: 16.1 µM; Activity [18]: Active; Activity (HEK293): Non-Toxic; inhibition [8]: 14% |
| Oc1cc(O)cc(/C=C/C2CCCCC2)c1 | 0.3 | 0.5 | – |
| CCOc1ccc(/C=C/c2cc(OCC)cc(OCC)c2)cc1 | 0.4 | 0.4 | – |
| Oc1cc(O)cc(/C=C/c2ccccc2O)c1 | 0.4 | 0.6 | – |
| O=C(Nc1ccc(O)cc1)c1cc(O)cc(O)c1 | 0.3 | -0.6 | – |
| Oc1cc(O)cc(/C=C/c2ccc(OCC3CCCCC3)cc2)c1 | 0.4 | -0.1 | – |
| Oc1ccc(/C=C/c2ccccc2)cc1 [(E)-4-STYRYLPHENOL] | 0.4 | 0.1 | – |
| COc1ccc(/C=C/c2cc(OC)cc(OC)c2)cc1 [TRISMETHOXYRESVERATROL] | 0.3 | 0.3 | – |
| Oc1cc(O)cc(/C=C/c2ccc(Cl)cc2)c1 | 0.3 | 0.5 | inhibition [4]: 18.6%; inhibition [5]: 5.6%; EC50 [6]: > 30 µM; IC50 [7]: > 30 µM; inhibition [8]: 6.1% |
| CCOc1ccc(/C=C/c2cc(O)cc(O)c2)cc1 | 0.3 | -0.2 | – |
| Oc1cc(O)cc(/C=C/c2cccc3ccccc23)c1 | 0.3 | 1.1 | – |
| CCCOc1ccc(/C=C/c2cc(OCCC)cc(OCCC)c2)cc1 | 0.3 | -0.1 | – |
| COc1ccc(/C=C/c2cc(O)cc(O)c2)cc1 [RESVERATROL 4'-METHYL ETHER] | 0.3 | 0.3 | – |
